Assay results: patent US20080004272A1, “Compositions and methods for modulating gated ion channels” (PainCeptor Pharma Corporation, priority 2006, published 2008)

Columns and labels:
ASIC1a [1] = target: T1, ASIC1a (Homo sapiens, UniProt P78348); test: Calcium imaging of MES-induced calcium response (FLIPR); type: cell-based; parameters: host or cells: HEK293
T1 sequence (P78348 1-528): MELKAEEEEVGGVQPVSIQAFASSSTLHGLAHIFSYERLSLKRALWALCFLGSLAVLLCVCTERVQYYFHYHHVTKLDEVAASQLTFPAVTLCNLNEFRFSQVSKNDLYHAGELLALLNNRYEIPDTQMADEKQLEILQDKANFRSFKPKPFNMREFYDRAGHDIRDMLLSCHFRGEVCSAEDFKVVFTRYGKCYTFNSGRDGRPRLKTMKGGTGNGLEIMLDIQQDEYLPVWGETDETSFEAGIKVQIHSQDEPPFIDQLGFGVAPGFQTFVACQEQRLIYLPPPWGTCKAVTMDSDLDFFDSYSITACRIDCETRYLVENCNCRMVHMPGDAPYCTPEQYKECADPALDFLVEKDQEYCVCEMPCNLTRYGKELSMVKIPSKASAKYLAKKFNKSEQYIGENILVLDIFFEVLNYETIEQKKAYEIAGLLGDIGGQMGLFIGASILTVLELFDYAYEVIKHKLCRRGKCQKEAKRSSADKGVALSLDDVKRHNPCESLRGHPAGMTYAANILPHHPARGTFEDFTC

ASIC1a [2] = target: T1, ASIC1a; test: Whole cell patch clamp in HEK293 cells transfected with hASIC1a; type: cell-based; parameters: expressed in transfected cells; host or cells: Xenopus laevis oocytes (nuclear microinjection of expression vector such as pcDNA3)
Method: Another example of an in vitro assessment method consists of using mammalian heterologous expression systems, which are known to the skilled in the art, and include a variety of mammalian cell lines such as COS, HEK, e.g., HEK293 and/or CHO, cells. Cell lines are transfected with gated ion channel(s) and used to perform electrophysiology as follows:
All experiments are performed at room temperature (20-25° C.) in voltage clamp using conventional whole cell patch clamp methods (Neher, E., et al. (1978) Pfluegers Arch 375:219-228).
The amplifier used is the EPC-9 (HEKA-electronics, Lambrect, Germany) run by a Macintosh G3 computer via an ITC-16 interface. Experimental conditions are set with the Pulse-software accompanying the amplifier. […]
Coverslips with the cells are transferred to a 15 μl experimental chamber mounted on the stage of an inverted microscope (IMT-2, Olympus) supplied with Nomarski optics. […] The cells are held at a holding voltage of −60 mV and at the start of each experiment the current is continuously measured for 45 s to ensure a stable baseline. […] Current amplitudes are measured at the peak of the responses, and effect of the compounds is calculated as the amplitude at compound equilibrium divided by the amplitude of the current evoked by the pulse just before the compound is included. […]

Q: What does the source list for CN1CCc2c(-c3ccccc3)cc(C#N)c(N)c2C1 [Compound 203, 8-Amino-2-methyl-5-phenyl-1,2,3,4-tetrahydro-isoquinoline-7-carbonitrile]?
A: IC50 (ASIC1a [1]): < 10 µM; IC50 (ASIC1a [2]): 7.5 µM

Q: What does the source list for COc1ccc(F)cc1-c1cc(C#N)c(N)c2c1CCN(C)C2 [Compound 206, 8-Amino-5-(5-fluoro-2-methoxy-phenyl)-2-methyl-1,2,3,4-tetrahydro-isoquinoline-7-carbonitrile]?
A: IC50 (ASIC1a [1]; ASIC1a expressing HEK293 cells, MES-induced calcium response, read-out: IC50 (FLIPR)): 20 to 40 µM; IC50 (ASIC1a [2]; HEK293 cells, whole cell patch clamp, six point dose-response, read-out: IC50, inhibition of acid-induced hASIC1a activity): 28 µM
